21 molecules from patent US20070238765A1, “Heterocyclic GABAA subtype selective receptor modulators” (Roche Palo Alto LLC, priority 2006, published 2007) can be followed below.

In one series the target is T1, GABAA α1β2γ2 (Homo sapiens, UniProt P14867+P18507+P47870).
T1 construct: expressed in transfected cells; host or cells: HEK293
The series is described as follows: 35S-TBPS binding assay, HEK293 membranes with GABAA α1β2γ2 construct. To be noted: 35S-TBPS 5 nM, GABA 1 μM, 2 hours at room temperature, read-out: α1β2γ2 (35S-TBPS binding, pIC50) (converted). The protocol: (§1) The binding assay is based on the assay reported by K. Gee et al., Eur. J. Pharmacol. 1987, 136, 419-423.
(§2) Homogenate preparation: Membrane preparations of HEK293 cells containing either GABAA α1β2γ2 or GABAA α2β3γ2 constructs were performed according to a modified procedure previously described by Gee et al. (supra). Whole HEK 293 cells in D-PBS (calcium/magnesium free) buffer adjusted to pH 7.4 were centrifuged at 7,280×g for 20 m. After discarding the supernatant, the pellet was resuspended in the buffer and centrifuged at 1,820×g for 10 m. Afterwards, the supernatant was discarded and the pellet resuspended in ice-cold preparation buffer (50 mM Tris HCl pH 7.4, 4° C. and 150 mM KCl), homogenized for 30 sec using a Brinkmann Polytron PT3000 (setting 6) and centrifuged at 48,000×g for 30 m at 4° C. The centrifugation and homogenization procedure was repeated two more times for a total of 3 times before resuspending the membranes at a final protein concentration of 0.5 mg/mL. Aliquots (30 mL) of the final membrane preparation were then centrifuged at 48,000×g for 30 m, and the resulting pellets were stored at −80° C. until required.
(§3) 35S-TBPS binding assay. Membrane pellets containing either GABAA α1β2γ2 or GABAA α2β3γ2 constructs were thawed on ice, resuspended in 10 mL of 50 mM Tris HCl pH7.4, 4° C. and 150 mM KCl and centrifuged at 48,000×g, 30 m at 4° C. After discarding the supernatant, the pellet was resuspended in 30 mL incubation buffer (50 mM Tris HCl pH 7.4, 25° C. and 150 mM KCl) at approximately 0.5 mg/mL protein concentration. In 35S-TBPS competition studies, HEK293 membranes were incubated with 35S-TBPS (5 nM final) and GABA (1 μM) in the absence or presence of competitor at concentrations ranging from 0.01 nM to 10 μM in 125 μL incubation buffer for 2 hours at room temperature (˜22° C.). Non-specific binding was assayed with picrotoxin (100 μM final concentration). The binding reaction was terminated by vacuum filtration through GF/B filters previously soaked in 0.1% polyethylenimine followed by 3×1 mL washes with ice cold wash buffer (50 mM Tris HCl pH7.4, 4° C. and 150 mM KCl). Measurement of bound radioactivity was performed using a Packard Microplate 96 well topcount scintillation counter. Analysis of competition curves and estimation of pIC50 values of test compounds were performed using the software programs ActivityBase and/or Prism (version 3.0).

For the next series, the target named is T2, GABAA α2β3γ2 (Homo sapiens, UniProt P18507+P28472+P47869).
T2 construct: expressed in transfected cells; host or cells: HEK293
T2 sequence (P47869 29-451): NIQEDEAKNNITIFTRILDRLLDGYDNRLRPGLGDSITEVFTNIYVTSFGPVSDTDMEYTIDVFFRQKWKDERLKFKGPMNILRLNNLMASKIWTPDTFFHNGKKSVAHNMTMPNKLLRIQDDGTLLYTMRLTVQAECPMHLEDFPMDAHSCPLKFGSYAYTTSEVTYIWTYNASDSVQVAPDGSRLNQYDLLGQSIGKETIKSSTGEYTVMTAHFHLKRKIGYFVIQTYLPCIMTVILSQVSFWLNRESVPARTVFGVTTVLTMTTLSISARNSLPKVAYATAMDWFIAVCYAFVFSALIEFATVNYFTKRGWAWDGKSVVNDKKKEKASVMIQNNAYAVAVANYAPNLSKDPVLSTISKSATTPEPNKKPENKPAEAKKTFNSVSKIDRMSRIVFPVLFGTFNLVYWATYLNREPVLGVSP
T2 sequence (P28472 26-473): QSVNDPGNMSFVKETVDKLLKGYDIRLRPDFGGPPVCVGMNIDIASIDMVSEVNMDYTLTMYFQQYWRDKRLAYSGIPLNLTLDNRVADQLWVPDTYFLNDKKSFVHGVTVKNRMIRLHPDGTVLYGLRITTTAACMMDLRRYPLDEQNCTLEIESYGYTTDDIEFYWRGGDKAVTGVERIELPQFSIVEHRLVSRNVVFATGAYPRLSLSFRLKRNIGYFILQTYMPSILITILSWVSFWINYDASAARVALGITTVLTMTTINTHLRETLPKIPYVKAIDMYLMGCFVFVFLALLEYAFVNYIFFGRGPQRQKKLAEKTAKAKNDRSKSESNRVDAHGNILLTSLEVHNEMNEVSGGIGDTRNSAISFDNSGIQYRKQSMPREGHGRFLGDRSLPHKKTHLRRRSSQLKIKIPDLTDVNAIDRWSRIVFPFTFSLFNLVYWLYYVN
T2 sequence (P18507 40-475): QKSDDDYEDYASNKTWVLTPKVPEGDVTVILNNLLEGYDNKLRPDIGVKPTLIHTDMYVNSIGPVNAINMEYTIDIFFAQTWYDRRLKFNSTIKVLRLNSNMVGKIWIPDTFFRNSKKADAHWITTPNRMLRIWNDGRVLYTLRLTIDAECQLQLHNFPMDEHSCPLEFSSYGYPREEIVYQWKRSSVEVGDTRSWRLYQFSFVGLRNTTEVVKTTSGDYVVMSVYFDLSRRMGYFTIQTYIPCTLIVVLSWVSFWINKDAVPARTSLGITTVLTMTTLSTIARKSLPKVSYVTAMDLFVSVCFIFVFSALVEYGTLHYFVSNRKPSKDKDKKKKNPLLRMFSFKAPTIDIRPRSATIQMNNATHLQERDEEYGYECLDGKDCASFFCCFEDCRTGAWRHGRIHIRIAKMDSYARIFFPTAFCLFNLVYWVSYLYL
Briefly: 35S-TBPS binding assay, HEK293 membranes with GABAA α2β3γ2 construct. The following applies: 35S-TBPS 5 nM, GABA 1 μM, 2 hours at room temperature, read-out: α2β3γ2 (35S-TBPS binding, pIC50) (converted). The protocol: as §1, §2, §3

The structures appear in SMILES notation.

T1 sequence (P14867 28-456): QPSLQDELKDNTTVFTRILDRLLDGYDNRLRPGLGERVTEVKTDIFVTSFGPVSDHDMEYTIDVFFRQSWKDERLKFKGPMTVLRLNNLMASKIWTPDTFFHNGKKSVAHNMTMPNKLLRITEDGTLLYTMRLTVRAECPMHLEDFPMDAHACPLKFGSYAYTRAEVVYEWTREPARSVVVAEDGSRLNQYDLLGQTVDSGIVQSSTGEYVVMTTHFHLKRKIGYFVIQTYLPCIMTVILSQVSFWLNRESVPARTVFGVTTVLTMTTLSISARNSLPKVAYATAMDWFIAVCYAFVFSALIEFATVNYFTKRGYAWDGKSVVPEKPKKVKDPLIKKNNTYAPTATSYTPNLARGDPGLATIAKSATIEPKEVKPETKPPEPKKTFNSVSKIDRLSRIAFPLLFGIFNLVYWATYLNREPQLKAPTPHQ
T1 sequence (P47870 25-512 limits assumed): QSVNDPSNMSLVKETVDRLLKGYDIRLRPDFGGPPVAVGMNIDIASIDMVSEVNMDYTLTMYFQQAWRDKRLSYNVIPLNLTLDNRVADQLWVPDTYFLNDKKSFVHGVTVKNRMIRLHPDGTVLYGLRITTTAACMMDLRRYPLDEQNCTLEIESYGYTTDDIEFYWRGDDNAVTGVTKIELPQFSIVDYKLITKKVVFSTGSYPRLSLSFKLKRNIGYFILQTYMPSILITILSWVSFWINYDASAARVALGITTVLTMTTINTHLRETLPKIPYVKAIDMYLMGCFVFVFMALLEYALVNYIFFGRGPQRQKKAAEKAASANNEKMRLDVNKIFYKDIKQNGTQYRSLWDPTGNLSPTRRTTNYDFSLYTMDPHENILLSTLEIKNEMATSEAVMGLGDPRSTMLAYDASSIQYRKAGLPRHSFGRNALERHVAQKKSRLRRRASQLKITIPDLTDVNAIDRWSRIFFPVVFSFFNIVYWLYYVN
T1 sequence (P18507 40-475): as the sequence (P18507 40-475) above

`Cn1nc2c(-c3ccc(Cl)cc3Cl)cccc2c1CN1CCOC1=O` [I-8, 3-[7-(2,4-Dichloro-phenyl)-2-meth-yl-2H-indazol-3-yl-methyl]-oxazolidin-2-one] gave a melting point of 165.9 to 167.5 °C. In addition, on GABAA α1β2γ2, the IC50 is 6310 nM. Also, the IC50 at GABAA α2β3γ2 is 1510 nM.
On the same counts, the results for `Cn1nc2c(-c3ccc(Cl)cc3Cl)cccc2c1Cc1nnnn1CCO` [I-10, 2-{5-[7-(2,4-Dichloro-phenyl)-2-methyl-2H-inda-zol-3-ylmethyl]-tetrazol-1-yl}-eth-anol] are 66.1 to 87.2 °C, over 10000 nM and 398 nM.
Turning to `Cn1nc2c(-c3ccc(Cl)cc3Cl)cccc2c1Cc1nnn(CCO)n1` [I-11, 2-{5-[7-(2,4-Dichloro-phenyl)-2-methyl-2H-inda-zol-3-ylmethyl]-tetrazol-2-yl}-eth-anol], the melting point lay within 147.7 to 151.1 °C. Further, the IC50 at GABAA α1β2γ2 was 1510 nM. The IC50 at GABAA α2β3γ2 is 347 nM.
Molecule `Cn1nc2c(-c3ccc(Cl)cc3Cl)cccc2c1Cc1nnn(CS(C)(=O)=O)n1` [I-12, 7-(2,4-Dichloro-phenyl)-3-(2-meth-anesulfonylmethyl-2H-tetra-zol-5-ylmethyl)-2-meth-yl-2H-indazole] yielded a melting point of 156.6 to 157.8 °C. Further, the IC50 at GABAA α1β2γ2 is 1150 nM. The IC50 on GABAA α2β3γ2 was 269 nM.
On the same counts, the results for `Cn1nc2c(-c3ccc(Cl)cc3Cl)cccc2c1C(=O)c1ncn[nH]1` [I-15, [7-(2,4-Dichloro-phenyl)-2-meth-yl-2H-indazol-3-yl]-(2H-[1,2,4]tri-azol-3-yl)-meth-anone] are 283.9 to 284.9 °C, over 10000 nM and 331 nM.
Taken in the same sequence, the figures for `Cn1nc2c(-c3ccc(Cl)cc3Cl)cccc2c1C(=O)c1nnn[nH]1` [I-18, [7-(2,4-Dichloro-phenyl)-2-meth-yl-2H-indazol-3-yl]-(1H-tetra-zol-5-yl)-methanone] were 209.8 to 210.3 °C, 933 nM and 110 nM.
`Cn1nnnc1Cc1c2cccc(-c3ccc(Cl)cc3Cl)c2nn1C` [I-20, 7-(2,4-Dichloro-phenyl)-2-meth-yl-3-(1-methyl-1H-tetra-zol-5-ylmethyl)-2H-inda-zole] yielded a melting point of 183.9 to 185.4 °C. Also, the IC50 on GABAA α2β3γ2 was 1700 nM.
Take `Cn1nc2c(-c3ccc(Cl)cc3Cl)cccc2c1-n1ccnc1` [I-22, 7-(2,4-Dichloro-phenyl)-3-imi-dazol-1-yl-2-methyl-2H-inda-zole]: the melting point was 63.2 to 89.4 °C. Also, the IC50 on GABAA α1β2γ2 was 3160 nM. Moreover, at GABAA α2β3γ2, the IC50 is 355 nM.
`Cn1nc2c(-c3ccc(Cl)cc3Cl)cccc2c1-n1cnnc1` [I-23, 7-(2,4-Dichloro-phenyl)-2-meth-yl-3-[1,2,4]triazol-4-yl-2H-inda-zole] registered a melting point of 117.9 to 121.3 °C. At GABAA α1β2γ2, the IC50 was over 10000 nM. On GABAA α2β3γ2, the IC50 was 4070 nM.
On the same counts, the results for `Cn1nc2c(-c3ccc(Cl)cc3Cl)cccc2c1Cc1nc[nH]n1` [I-31, 7-(2,4-Dichloro-phenyl)-2-meth-yl-3-(1H-[1,2,4]triazol-3-yl-methyl)-2H-indazole] are 206.3 to 207 °C, 4170 nM and 355 nM.
In the case of `Cn1nnc(Cc2c3cccc(-c4ccc(Cl)cc4Cl)c3nn2C)n1` [I-33, 7-(2,4-Dichloro-phenyl)-2-meth-yl-3-(2-methyl-2H-tetra-zol-5-ylmethyl)-2H-inda-zole], the melting point lay within 158.8 to 160.5 °C. Besides, on GABAA α1β2γ2, the IC50 was 1480 nM. Moreover, the IC50 on GABAA α2β3γ2 was 102 nM.
`Cn1nc2c(-c3ccc(Cl)cc3Cl)cccc2c1CCc1ncn[nH]1` [I-34, 7-(2,4-Dichloro-phenyl)-2-meth-yl-3-[2-(2H-[1,2,4]tri-azol-3-yl)-ethyl]-2H-inda-zole] returned a melting point of 92 to 115.5 °C. The IC50 on GABAA α1β2γ2 is 9550 nM. Also, the IC50 on GABAA α2β3γ2 is 309 nM.
Molecule `Cn1nc2c(-c3ccc(Cl)cc3Cl)cccc2c1CCC1=NCCN1` [I-38, 7-(2,4-Dichloro-phenyl)-3-[2-(4,5-di-hydro-1H-imidazol-2-yl)-eth-yl]-2-methyl-2H-inda-zole] had a melting point of 60.5 to 65.1 °C. For the same molecule, at GABAA α1β2γ2, the IC50 was over 10000 nM. Besides, at GABAA α2β3γ2, the IC50 is over 10000 nM.
In turn, `Cn1nc2c(-c3ccc(Cl)cc3Cl)cccc2c1-c1nnco1` [I-39, 7-(2,4-Dichloro-phenyl)-2-meth-yl-3-[1,3,4]oxadiazol-2-yl-2H-inda-zole] came in with a melting point of 199 to 201.2 °C. Moreover, the IC50 on GABAA α1β2γ2 was over 10000 nM. Further, the IC50 at GABAA α2β3γ2 is 2820 nM.
Taken in the same sequence, the figures for `Cn1nc2c(-c3ccc(Cl)cc3Cl)cccc2c1C1=NCCN1` [I-41, 7-(2,4-Dichloro-phenyl)-3-(4,5-di-hydro-1H-imidazol-2-yl)-2-meth-yl-2H-indazole] were 212.8 to 214.5 °C, over 10000 nM and 4680 nM.
Taken in the same sequence, the figures for `Cn1nc2c(-c3ccc(Cl)cc3Cl)cccc2c1CCc1nnn[nH]1` [I-46, 7-(2,4-Dichloro-phenyl)-2-meth-yl-3-[2-(1H-tetrazol-5-yl)-eth-yl]-2H-indazole] were 209.4 to 210.3 °C, 479 nM and 603 nM.
In turn, `Cn1nc2c(-c3ccc(Cl)cc3Cl)cccc2c1/C=C/c1nnn[nH]1` [I-47, 7-(2,4-Dichloro-phenyl)-2-meth-yl-3-[(E)-2-(1H-tetra-zol-5-yl)-vinyl]-2H-inda-zole] yielded a melting point of 256.8 to 258.1 °C. Also, the IC50 on GABAA α1β2γ2 is 1200 nM. Also, on GABAA α2β3γ2, the IC50 is 151 nM.
On the same counts, the results for `Cn1nc2c(-c3ccc(Cl)cc3Cl)cccc2c1C1=NCCO1` [I-48, 7-(2,4-Dichloro-phenyl)-3-(4,5-di-hydro-oxazol-2-yl)-2-meth-yl-2H-indazole] are 162.2 to 167.1 °C, over 10000 nM and 468 nM.
In turn, `Cc1noc(-c2c3cccc(-c4ccc(Cl)cc4Cl)c3nn2C)n1` [I-50, 7-(2,4-Dichloro-phenyl)-2-meth-yl-3-(3-methyl-[1,2,4]oxa-diazol-5-yl)-2H-inda-zole] had a melting point of 178 to 178.5 °C. Also, on GABAA α1β2γ2, the IC50 was over 10000 nM. Further, on GABAA α2β3γ2, the IC50 is 676 nM.
`Cn1nc2c(-c3ccc(Cl)cc3Cl)cccc2c1-c1cnco1` [I-51, 7-(2,4-Dichloro-phenyl)-2-meth-yl-3-oxazol-5-yl-2H-inda-zole]: the melting point fell in the range of 167.5 to 169.5 °C. At GABAA α1β2γ2, the IC50 was 3020 nM. The IC50 at GABAA α2β3γ2 is 166 nM.
Taken in the same sequence, the figures for `Cn1nc2c(-c3ccc(Cl)cc3Cl)cccc2c1Cc1nnn[nH]1` [I-53, 7-(2,4-Dichloro-phenyl)-2-meth-yl-3-(1H-tetrazol-5-yl-methyl)-2H-indazole] were 270.1 to 275.5 °C, 2240 nM and 234 nM.
